# Data from ChEMBL document CHEMBL1127068, “Selective inhibition of mammalian lanosterol 14 alpha-demethylase: a possible strategy for cholesterol lowering” (J Med Chem, 1993).
# How the values were obtained:
# Cricetinae gen. sp. [1] = assay: Percentage lowering of the total serum cholesterol in male hamsters at a dose of 25 mg/dL orally administered for 14 days; assay type: functional, Cricetulus griseus
# Cricetinae gen. sp. [2] = assay: Percentage lowering of the total serum cholesterol in male hamsters at a dose of 75 mg/dL orally administered for 14 days; assay type: functional, Cricetulus griseus
# Cricetinae gen. sp. [3] = assay: Effect on total serum cholesterol in male hamsters at a dose of 100 mg/kg orally administered for 14 days; assay type: functional, Cricetulus griseus; conditions: route oral
# Cricetinae gen. sp. [4] = assay: Effect on total serum cholesterol in male hamsters at a dose of 25 mg/kg orally administered for 14 days; assay type: functional, Cricetulus griseus; conditions: route oral
# Cricetinae gen. sp. [5] = assay: Effect on total serum cholesterol in male hamsters at a dose of 50 mg/kg orally administered for 14 days; assay type: functional, Cricetulus griseus; conditions: route oral
# Cricetinae gen. sp. [6] = assay: Effect on total serum cholesterol in male hamsters at a dose of 75 mg/kg orally administered for 14 days; assay type: functional, Cricetulus griseus; conditions: route oral
# Cricetinae gen. sp. [7] = assay: Percentage lowering of the total serum cholesterol in male hamsters at a dose of 100 […] orally administered for 14 days; assay type: functional, Cricetulus griseus
# Cricetinae gen. sp. [8] = assay: Percentage lowering of the total serum cholesterol in male hamsters at a dose of 50 mg/dL orally administered for 14 days; assay type: functional, Cricetulus griseus
# Cricetinae gen. sp. [9] = assay: Effect on total serum cholesterol in male hamsters at a dose of 10 mg/kg orally administered for 14 days; assay type: functional, Cricetulus griseus; conditions: route oral
# Cricetinae gen. sp. [10] = assay: Effect on total serum cholesterol in male hamsters at a dose of 60 mg/kg orally administered for 3 days; assay type: functional, Cricetulus griseus; conditions: route oral
# Cricetinae gen. sp. [11] = assay: Percentage lowering of the total serum cholesterol in male hamsters at a dose of 60 […] orally administered for 3 days; assay type: functional, Cricetulus griseus
# Cricetinae gen. sp. [12] = assay: Percentage increase of the total serum cholesterol in male hamsters at a dose of 25 […] orally administered for 14 days; assay type: functional, Cricetulus griseus
# Cricetinae gen. sp. [13] = assay: Percentage increase of the total serum cholesterol in male hamsters at a dose of 10 […] orally administered for 14 days; assay type: functional, Cricetulus griseus
# Cricetinae gen. sp. [14] = assay: Effect on total serum cholesterol in male hamsters at a dose of 200 mg/kg orally administered for 14 days; assay type: functional, Cricetulus griseus; conditions: route oral
# Cricetinae gen. sp. [15] = assay: Percentage lowering of the total serum cholesterol in male hamsters at a dose of 200 […] orally administered for 14 days; assay type: functional, Cricetulus griseus
# Homo sapiens = species on record: Homo sapiens; assay: Inhibition of cellular cholesterol biosynthesis using human fibroblasts in tissue culture; assay type: functional, organism-based
# [16] = biological target: T1, Lanosterol 14-alpha demethylase (Rattus norvegicus, UniProt Q64654); assay: Inhibition of lanosterol 14-alpha-demethylase of rat hepatic microsomes
# T1 sequence (Q64654 whole entry): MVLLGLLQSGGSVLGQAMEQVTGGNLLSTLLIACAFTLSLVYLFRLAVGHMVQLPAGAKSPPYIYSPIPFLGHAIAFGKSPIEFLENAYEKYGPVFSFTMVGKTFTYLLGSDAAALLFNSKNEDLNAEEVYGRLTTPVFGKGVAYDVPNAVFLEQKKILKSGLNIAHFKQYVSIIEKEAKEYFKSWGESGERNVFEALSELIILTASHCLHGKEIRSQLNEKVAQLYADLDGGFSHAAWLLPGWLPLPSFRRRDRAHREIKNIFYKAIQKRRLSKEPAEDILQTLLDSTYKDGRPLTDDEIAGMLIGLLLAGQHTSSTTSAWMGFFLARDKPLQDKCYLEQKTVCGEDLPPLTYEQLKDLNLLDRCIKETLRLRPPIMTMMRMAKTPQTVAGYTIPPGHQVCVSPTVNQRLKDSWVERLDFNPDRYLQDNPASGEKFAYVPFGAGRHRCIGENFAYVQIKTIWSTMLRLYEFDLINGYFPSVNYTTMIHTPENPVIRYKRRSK
# Aromatase = biological target: T2, Aromatase (Homo sapiens, UniProt P11511); assay: Binding affinity for Cytochrome P450 19A1
# T2 sequence (P11511 whole entry): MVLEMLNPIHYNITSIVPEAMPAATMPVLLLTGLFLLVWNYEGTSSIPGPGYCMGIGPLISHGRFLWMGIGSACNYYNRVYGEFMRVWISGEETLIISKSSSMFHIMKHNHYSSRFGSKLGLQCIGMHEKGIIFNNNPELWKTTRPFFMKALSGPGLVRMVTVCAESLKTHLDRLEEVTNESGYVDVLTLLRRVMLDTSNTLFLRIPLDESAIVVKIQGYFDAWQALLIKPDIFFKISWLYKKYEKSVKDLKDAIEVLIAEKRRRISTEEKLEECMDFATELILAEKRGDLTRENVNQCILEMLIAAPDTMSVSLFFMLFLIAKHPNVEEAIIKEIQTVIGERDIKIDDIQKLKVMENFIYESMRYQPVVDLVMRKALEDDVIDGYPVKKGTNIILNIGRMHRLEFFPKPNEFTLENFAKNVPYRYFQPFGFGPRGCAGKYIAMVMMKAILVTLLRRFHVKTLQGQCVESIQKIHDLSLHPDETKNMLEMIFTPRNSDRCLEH
# Cricetinae gen. sp. [17] = assay: Percentage lowering of the total serum cholesterol in male hamsters at a dose of 100 […] orally administered for 3 days; assay type: functional, Cricetulus griseus
# Cricetinae gen. sp. [18] = assay: Percentage lowering of the total serum cholesterol in male hamsters at a dose of 30 mg/dL orally administered for 3 days; assay type: functional, Cricetulus griseus
# Cricetinae gen. sp. [19] = assay: Percentage lowering of the total serum cholesterol in male hamsters at a dose of 5 mg/dL orally administered for 14 days; assay type: functional, Cricetulus griseus
# Cricetinae gen. sp. [20] = assay: Effect on total serum cholesterol in male hamsters at a dose of 10 mg/kg orally administered for 3 days; assay type: functional, Cricetulus griseus; conditions: route oral
# Cricetinae gen. sp. [21] = assay: Effect on total serum cholesterol in male hamsters at a dose of 100 mg/kg orally administered for 3 days; assay type: functional, Cricetulus griseus; conditions: route oral
# Cricetinae gen. sp. [22] = assay: Effect on total serum cholesterol in male hamsters at a dose of 30 mg/kg orally administered for 3 days; assay type: functional, Cricetulus griseus; conditions: route oral
# Cricetinae gen. sp. [23] = assay: Effect on total serum cholesterol in male hamsters at a dose of 5 mg/kg orally administered for 14 days; assay type: functional, Cricetulus griseus; conditions: route oral
# Cricetinae gen. sp. [24] = assay: Percentage lowering of the total serum cholesterol in male hamsters at a dose of 10 […] orally administered for 14 days; assay type: functional, Cricetulus griseus
# Cricetinae gen. sp. [25] = assay: Percentage lowering of the total serum cholesterol in male hamsters at a dose of 10 […] orally administered for 3 days; assay type: functional, Cricetulus griseus
# [26] = Inhibition of lanosterol 14-alpha-demethylation in hepatic microsomes from hamster; assay type: functional, Cricetulus griseus, Liver
# [27] = Inhibition of lanosterol 14-alpha-demethylation in hepatic microsomes from human; assay type: functional, Liver
# [28] = Inhibition of lanosterol 14-alpha-demethylation in hepatic microsomes from rat; assay type: functional, Liver
# [29] = biological target: T3, Cytochrome P450 11B1, mitochondrial (Homo sapiens, UniProt P15538); assay: Binding affinity for corticoid 11-beta-hydroxylase
# T3 sequence (P15538 whole entry): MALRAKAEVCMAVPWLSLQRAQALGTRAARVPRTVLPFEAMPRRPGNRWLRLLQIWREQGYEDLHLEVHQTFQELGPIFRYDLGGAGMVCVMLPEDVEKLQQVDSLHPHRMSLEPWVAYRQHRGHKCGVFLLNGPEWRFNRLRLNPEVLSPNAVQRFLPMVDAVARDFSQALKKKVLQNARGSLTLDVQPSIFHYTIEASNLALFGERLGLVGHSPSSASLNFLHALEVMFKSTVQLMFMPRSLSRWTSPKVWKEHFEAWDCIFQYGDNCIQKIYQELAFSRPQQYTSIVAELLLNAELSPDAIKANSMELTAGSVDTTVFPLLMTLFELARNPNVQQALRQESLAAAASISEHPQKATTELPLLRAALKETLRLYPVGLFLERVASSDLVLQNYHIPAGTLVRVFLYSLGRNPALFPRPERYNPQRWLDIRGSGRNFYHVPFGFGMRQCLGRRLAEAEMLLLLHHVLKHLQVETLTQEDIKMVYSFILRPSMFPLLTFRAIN
# [30] = biological target: T4, Steroid 17-alpha-hydroxylase/17,20 lyase (Homo sapiens, UniProt P05093); assay: Binding affinity for progesterone 17-alpha,20-lyase
# T4 sequence (P05093 whole entry): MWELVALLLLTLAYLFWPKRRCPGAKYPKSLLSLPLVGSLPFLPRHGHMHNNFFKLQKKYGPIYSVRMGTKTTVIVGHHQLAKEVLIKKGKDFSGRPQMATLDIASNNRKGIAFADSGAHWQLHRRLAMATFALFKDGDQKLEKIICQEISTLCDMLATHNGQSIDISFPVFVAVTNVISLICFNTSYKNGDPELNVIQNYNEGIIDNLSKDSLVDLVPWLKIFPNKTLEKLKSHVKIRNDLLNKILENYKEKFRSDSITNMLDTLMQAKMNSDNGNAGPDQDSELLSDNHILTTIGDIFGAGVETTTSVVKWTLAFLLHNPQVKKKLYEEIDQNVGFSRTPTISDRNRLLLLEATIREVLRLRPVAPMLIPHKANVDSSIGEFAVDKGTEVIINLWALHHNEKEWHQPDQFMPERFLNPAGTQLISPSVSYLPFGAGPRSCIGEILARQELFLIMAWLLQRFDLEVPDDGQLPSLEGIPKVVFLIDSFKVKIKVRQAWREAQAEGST
# Cytochrome P450 3A4 = Cytochrome P450 3A4 (Homo sapiens, UniProt P08684); assay: Binding affinity for progesterone 6-beta-hydroxylase of hepatic microsomes; assay type: ADME
# Cytochrome P450 3A4, sequence (P08684 whole entry): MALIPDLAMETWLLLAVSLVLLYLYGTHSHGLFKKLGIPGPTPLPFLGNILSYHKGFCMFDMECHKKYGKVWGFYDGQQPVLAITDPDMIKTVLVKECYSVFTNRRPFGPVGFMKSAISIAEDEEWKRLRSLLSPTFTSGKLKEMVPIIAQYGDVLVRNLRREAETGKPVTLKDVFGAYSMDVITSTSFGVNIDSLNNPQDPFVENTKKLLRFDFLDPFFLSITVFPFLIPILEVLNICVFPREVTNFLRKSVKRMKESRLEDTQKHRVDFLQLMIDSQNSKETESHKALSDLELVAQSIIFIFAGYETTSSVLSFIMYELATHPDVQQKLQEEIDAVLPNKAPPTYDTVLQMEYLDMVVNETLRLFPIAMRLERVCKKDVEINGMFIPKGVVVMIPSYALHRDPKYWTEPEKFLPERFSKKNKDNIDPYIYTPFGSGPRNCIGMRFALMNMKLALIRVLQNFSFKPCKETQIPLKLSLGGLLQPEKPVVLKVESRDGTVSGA
# [31] = biological target: T4, Steroid 17-alpha-hydroxylase/17,20 lyase; assay: Binding affinity for […] 17-alpha-hydroxylase
Structure (SMILES),Lowering (Cricetinae gen. sp. [1]),TC (Cricetinae gen. sp. [3]),TC (Cricetinae gen. sp. [4]),TC (Cricetinae gen. sp. [5]),Lowering (Cricetinae gen. sp. [7]),Lowering (Cricetinae gen. sp. [8]),TC (Cricetinae gen. sp. [9]),Increase (Cricetinae gen. sp. [12]),IC50 (Homo sapiens),also measured
Cl.Cl.Cl.Nc1ccc(SC[C@@H]2CO[C@](CCc3ccc(Cl)cc3)(Cn3ccnc3)O2)cc1,8%,65.6 mg/dL,117.4 mg/dL,88.9 mg/dL,49%,30%,–,–,–,Lowering (Cricetinae gen. sp. [2]): 40%; TC (Cricetinae gen. sp. [6]): 76 mg/dL
Nc1ccc(SC[C@@H]2CO[C@@](CCc3ccc(Cl)cc3)(Cn3ccnc3)O2)cc1,–,113.3 mg/dL,125.8 mg/dL,112.4 mg/dL,4%,6%,125.2 mg/dL,6%,–,TC (Cricetinae gen. sp. [10]): 120.4 mg/dL; Lowering (Cricetinae gen. sp. [11]): 15%; Increase (Cricetinae gen. sp. [13]): 6%
CC(=O)N1CCN(c2ccc(OCC3COC(Cn4ccnc4)(c4ccc(Cl)cc4Cl)O3)cc2)CC1 (stereo unspecified) [KETOCONAZOLE],–,105 mg/dL,125.2 mg/dL,111.4 mg/dL,11%,6%,–,6%,37 nM,TC (Cricetinae gen. sp. [14]): 83.1 mg/dL; Lowering (Cricetinae gen. sp. [15]): 30%; Ki [16]: 65 nM
Nc1ccc(SC[C@@H]2CO[C@](CCc3ccc(Cl)cc3)(Cn3ccnc3)O2)cc1 [AZALANSTAT],30%,–,82.9 mg/dL,74.7 mg/dL,–,37%,104 mg/dL,–,0.09 nM,Ki (Aromatase): 7.6 nM; Lowering (Cricetinae gen. sp. [17]): 62%; Lowering (Cricetinae gen. sp. [18]): 36%; Lowering (Cricetinae gen. sp. [19]): 2%; TC (Cricetinae gen. sp. [20]): 85.1 mg/dL; TC (Cricetinae gen. sp. [21]): 41.8 mg/dL; TC (Cricetinae gen. sp. [22]): 71 mg/dL; TC (Cricetinae gen. sp. [23]): 115.5 mg/dL; Lowering (Cricetinae gen. sp. [24]): 12%; Lowering (Cricetinae gen. sp. [25]): 23%; Ki [26]: 1.4 nM; Ki [27]: 0.79 nM; Ki [28]: 2.5 nM; Ki [29]: 35 nM; Ki [30]: 447 nM; Ki (Cytochrome P450 3A4): 28 nM; Ki [31]: 1620 nM
